Data from patent US11261186B2, “Biaryl derivative as GPR120 agonist” (LG CHEM, LTD., priority 2014, dated 2022).

target: T1, hGPR120 (Homo sapiens, UniProt Q5NUL3); assay: Measurement of Activity of GPR120 Agonist (Cell-Based Assay), Calcium 5 dye fluorescence; settings: CHO-K1 cells expressing Ga16 and hGPR120
T1 construct: expressed in transfected cells; host or cells: CHO-K1
T1 sequence (Q5NUL3 1-361): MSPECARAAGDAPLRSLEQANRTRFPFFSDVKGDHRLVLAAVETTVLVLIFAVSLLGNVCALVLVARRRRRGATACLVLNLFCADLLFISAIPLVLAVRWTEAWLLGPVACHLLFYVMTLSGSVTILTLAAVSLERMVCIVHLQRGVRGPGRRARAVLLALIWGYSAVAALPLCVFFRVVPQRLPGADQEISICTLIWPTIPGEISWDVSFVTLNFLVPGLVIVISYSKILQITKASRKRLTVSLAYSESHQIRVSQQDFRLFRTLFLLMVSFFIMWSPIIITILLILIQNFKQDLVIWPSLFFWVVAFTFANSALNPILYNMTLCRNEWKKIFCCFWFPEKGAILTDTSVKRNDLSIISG
In short: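 CHO-K1 cells co-expressing Gα16 and hGPR120, plated 18 h, loaded 1 h at 37°C with Calcium 5 dye. Serially diluted agonists added at 0.5% DMSO final; fluorescence read at Ex 485/Em 525 nm and expressed as relative % of DMSO-only signal.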

`O=C(O)CCCC(F)(F)c1ccc(-c2cccnc2SC2CCC2)cc1` [Example 178, 5-[4-(2-cyclobutylsulfanyl-pyridin-3-yl)-phenyl]-5,5-difluoro-pentanoic acid] and `O=C(O)CCCC(F)(F)c1ccc(-c2cccnc2SC2CCCC2)cc1` [Example 184, 5-[4-(2-cyclopentylsulfanyl-pyridin-3-yl)-phenyl]-5,5-difluoro-pentanoic acid] cannot be ordered by EC50: less than 0.2 µM for the first, less than 0.2 µM for the second.

`CCCSc1ncccc1-c1cc(F)c(C2CC2CCC(=O)O)c(F)c1` (stereo not drawn) [Example 179, 3-{2-[2,6-difluoro-4-(2-propylsulfanyl-pyridin-3-yl)-phenyl]-cyclopropyl}-propanoic acid] and `O=C(O)CCC1CC1c1c(F)cc(-c2cccnc2SC2CCCC2)cc1F` (stereo not drawn) [Example 182, 3-{2-[4-(2-cyclopentylsulfanyl-pyridin-3-yl)-2,6-difluoro-phenyl]-cyclopropyl}-propanoic acid] cannot be ordered by EC50: less than 0.2 µM for the first, less than 0.2 µM for the second.

`O=C(O)CCC1CC1c1c(F)cc(-c2cccc(OC3CCC3)n2)cc1F` (stereo not drawn) [Example 180, 3-{2-[4-(6-cyclobutoxy-pyridin-2-yl)-2,6-difluoro-phenyl]-cyclopropyl}-propanoic acid] and `O=C(O)CCC1CC1c1c(F)cc(-c2cccc(OCC3CC3)n2)cc1F` (stereo not drawn) [Example 191, 3-{2-[4-(6-cyclopropylmethoxy-pyridin-2-yl)-2,6-difluoro-phenyl]-cyclopropyl}-propanoic acid] cannot be ordered by EC50: less than 0.2 µM for the first, less than 0.2 µM for the second.

`O=C(O)CCCC(F)(F)c1ccc(-c2cccnc2OCC2CC2)cc1` [Example 181, 5-[4-(2-cyclopropylmethoxy-pyridin-3-yl)-phenyl]-5,5-difluoro-pentanoic acid] and `O=C(O)CCCC(F)(F)c1ccc(-c2cccnc2OC2CCC2)cc1` [Example 185, 5-[4-(2-cyclobutoxy-pyridin-3-yl)-phenyl]-5,5-difluoro-pentanoic acid] cannot be ordered by EC50: less than 0.2 µM for the first, less than 0.2 µM for the second.

`O=C(O)CCC1CC1c1c(F)cc(-c2cccnc2NC2CCCC2)cc1F` (stereo not drawn) [Example 183, 3-{2-[4-(2-cyclopentylamino-pyridin-3-yl)-2,6-difluoro-phenyl]-cyclopropyl}-propanoic acid] and `O=C(O)CCC1CC1c1c(F)cc(-c2cccnc2OC2CCC2)cc1F` (stereo not drawn) [Example 188, 3-{2-[4-(2-cyclobutoxy-pyridin-3-yl)-2,6-difluoro-phenyl]-cyclopropyl}-propanoic acid] cannot be ordered by EC50: less than 0.2 µM for the first, less than 0.2 µM for the second.

`O=C(O)CCCC(F)(F)c1ccc(-c2cccc(OC3CCC3)n2)cc1` [Example 186, 5-[4-(6-cyclobutoxy-pyridin-2-yl)-phenyl]-5,5-difluoro-pentanoic acid] and `CC(C)Sc1cccc(-c2ccc(C(F)(F)CCCC(=O)O)cc2)n1` [Example 192, 5,5-difluoro-5-[4-(6-isopropylsulfanyl-pyridin-2-yl)-phenyl]-pentanoic acid] cannot be ordered by EC50: less than 0.2 µM for the first, less than 0.2 µM for the second.

First: O=C(O)CC1CCC(c2ccc(-c3cccnc3OC3CCCC3)cc2F)CC1 (stereo not drawn) [Example 187, {4-[4-(2-cyclopentyloxy-pyridin-3-yl)-2-fluoro-phenyl]-cyclohexyl}-acetic acid]
Second: CN(CCCC(=O)O)c1c(F)cc(-c2cccnc2OC2CCCC2)cc1F [Example 196, 4-{[4-(2-cyclopentyloxy-pyridin-3-yl)-2,6-difluoro-phenyl]-methyl-amino}-butyric acid]
The EC50 of the first is higher: 0.2 to 2 µM for the first, less than 0.2 µM for the second.

First: O=C(O)CCC1CC1c1c(F)cc(-c2cccnc2OCC2CCC2)cc1F (stereo not drawn) [Example 189, 3-{2-[4-(2-cyclobutylmethoxy-pyridin-3-yl)-2,6-difluoro-phenyl]-cyclopropyl}-propanoic acid]
Second: O=C(O)CCC1CC1c1c(F)cc(-c2cccnc2OC2CCOCC2)cc1F (stereo not drawn) [Example 190, 3-(2-{2,6-difluoro-4-[2-(tetrahydro-pyran-4-yloxy)-pyridin-3-yl]-phenyl}-cyclopropyl)-propanoic acid]
The EC50 of the first is lower: less than 0.2 µM for the first, 0.2 to 2 µM for the second.

`CC1(C)Cc2c(cccc2-c2ccc(OCCCC(=O)O)cc2)O1` [Example 193, 4-[4-(2,2-dimethyl-2,3-dihydro-benzofuran-4-yl)-phenoxy]-butyric acid] and `CC1(C)Cc2c(cccc2-c2ccc(OCCCC(=O)O)c(F)c2)O1` [Example 194, 4-[4-(2,2-dimethyl-2,3-dihydro-benzofuran-4-yl)-2-fluoro-phenoxy]-butyric acid] cannot be ordered by EC50: less than 0.2 µM for the first, less than 0.2 µM for the second.

`CN(CCCC(=O)O)c1c(F)cc(-c2cccnc2SC2CCC2)cc1F` [Example 195, 4-{[4-(2-cyclobutylsulfanyl-pyridin-3-yl)-2,6-difluoro-phenyl]-methyl-amino}-butyric acid] and `CN(CCCC(=O)O)c1c(F)cc(-c2cccnc2SC2CCCC2)cc1F` [Example 197, 4-{[4-(2-cyclopentylsulfanyl-pyridin-3-yl)-2,6-difluoro-phenyl]-methyl-amino}-butyric acid] cannot be ordered by EC50: less than 0.2 µM for the first, less than 0.2 µM for the second.

`CN(CCCC(=O)O)c1c(F)cc(-c2cccc(OC3CCC3)c2)cc1F` [Example 199, 4-[(3′-cyclobutoxy-3,5-difluoro-biphenyl-4-yl)-methyl-amino]-butyric acid] and `CN(CCCC(=O)O)c1c(F)cc(-c2cccc(OC3CCC3)n2)cc1F` [Example 205, 4-{[4-(6-cyclobutoxy-pyridin-2-yl)-2,6-difluoro-phenyl]-methyl-amino}-butyric acid] cannot be ordered by EC50: less than 0.2 µM for the first, less than 0.2 µM for the second.

Compared with `O=C(O)CCCn1ccc2cc(-c3cccnc3SC3CCCC3)ccc21` [Example 200, 4-[5-(2-cyclopentylsulfanyl-pyridin-3-yl)-indol-1-yl]-butyric acid], `CN(CCCC(=O)O)c1ccc(-c2cccnc2SC2CCCC2)cc1F` [Example 213, 4-{[4-(2-cyclopentylsulfanyl-pyridin-3-yl)-2-fluoro-phenyl]-methyl-amino}-butyric acid] is lower in EC50: 0.2 to 2 µM for the first, less than 0.2 µM for the second.

First: CN(CCCC(=O)O)c1c(F)cc(-c2cccc(N3CCCC3)c2)cc1F [Example 201, 4-[(3,5-difluoro-3′-pyrrolidin-1-yl-biphenyl-4-yl)-methyl-amino]-butyric acid]
Second: CN(CCCC(=O)O)c1c(F)cc(-c2cccc(OC3CCCC3)n2)cc1F [Example 204, 4-{[4-(6-cyclopentyloxy-pyridin-2-yl)-2,6-difluoro-phenyl]-methyl-amino}-butyric acid]
The EC50 of the first is higher: 0.2 to 2 µM for the first, less than 0.2 µM for the second.

`CN(CCCC(=O)O)c1c(F)cc(-c2cccc(SC3CCC3)n2)cc1F` [Example 202, 4-{[4-(6-cyclobutylsulfanyl-pyridin-2-yl)-2,6-difluoro-phenyl]-methyl-amino}-butyric acid] and `CN(CCCC(=O)O)c1c(F)cc(-c2cccnc2OC2CCC2)cc1F` [Example 206, 4-{[4-(2-cyclobutoxy-pyridin-3-yl)-2,6-difluoro-phenyl]-methyl-amino}-butyric acid] cannot be ordered by EC50: less than 0.2 µM for the first, less than 0.2 µM for the second.

`CN(CCCC(=O)O)c1c(F)cc(-c2cccc3c2OC(F)(F)O3)cc1F` [Example 203, 4-{[4-(2,2-difluoro-benzo[1,3]dioxol-4-yl)-2,6-difluoro-phenyl]-methyl-amino}-butyric acid] and `CCSc1ncccc1-c1cc(F)c(N(C)CCCC(=O)O)c(F)c1` [Example 208, 4-{[4-(2-ethylsulfanyl-pyridin-3-yl)-2,6-difluoro-phenyl]-methyl-amino}-butyric acid] cannot be ordered by EC50: less than 0.2 µM for the first, less than 0.2 µM for the second.

First: CCCSc1ncccc1-c1cc(F)c(N(C)CCCC(=O)O)c(F)c1 [Example 207, 4-{[2,6-difluoro-4-(2-propylsulfanyl-pyridin-3-yl)-phenyl]-methyl-amino}-butyric acid]
Second: CC(C)Oc1ncccc1-c1cc(F)c(N(C)CCCC(=O)O)c(F)c1 [Example 214, 4-{[2,6-difluoro-4-(2-isopropoxy-pyridin-3-yl)-phenyl]-methyl-amino}-butyric acid]
The EC50 of the first is lower: less than 0.2 µM for the first, 0.2 to 2 µM for the second.

`CN(CCCC(=O)O)c1ccc(-c2cccnc2SC2CCC2)cc1F` [Example 209, 4-{[4-(2-cyclobutylsulfanyl-pyridin-3-yl)-2-fluoro-phenyl]-methyl-amino}-butyric acid] and `CC(C)Sc1ncccc1-c1ccc(N(C)CCCC(=O)O)c(F)c1` [Example 212, 4-{[2-fluoro-4-(2-isopropylsulfanyl-pyridin-3-yl)-phenyl]-methyl-amino}-butyric acid] cannot be ordered by EC50: less than 0.2 µM for the first, less than 0.2 µM for the second.

Compared with `O=C(O)C1CC1CNc1c(F)cc(-c2cccnc2SC2CCCC2)cc1F` (stereo not drawn) [Example 210, 2-{[4-(2-cyclopentylsulfanyl-pyridin-3-yl)-2,6-difluoro-phenylamino]-methyl}-cyclopropanecarboxylic acid], `O=C(O)C1CC1CNc1ccc(-c2cccnc2SC2CCCC2)cc1` (stereo not drawn) [Example 211, 2-{[4-(2-cyclopentylsulfanyl-pyridin-3-yl)-phenylamino]-methyl}-cyclopropanecarboxylic acid] is higher in EC50: less than 0.2 µM for the first, 0.2 to 2 µM for the second.

`CN(CCCC(=O)O)c1c(F)cc(-c2ccccc2NC2CCCC2)cc1F` [Example 215, 4-[(2′-cyclopentylamino-3,5-difluoro-biphenyl-4-yl)-methyl-amino]-butyric acid] and `Cc1cnc(OC2CCCC2)c(-c2cc(F)c(N(C)CCCC(=O)O)c(F)c2)c1` [Example 217, 4-{[4-(2-cyclopentyloxy-5-methyl-pyridin-3-yl)-2,6-difluoro-phenyl]-methyl-amino}-butyric acid] cannot be ordered by EC50: less than 0.2 µM for the first, less than 0.2 µM for the second.

Work on `CC(C)Oc1ccc(F)cc1-c1cc(F)c(N(C)CCCC(=O)O)c(F)c1` [Example 216, 4-[methyl-(3,5,5′-trifluoro-2′-isopropoxy-biphenyl-4-yl)-amino]-butyric acid] yielded an EC50 of less than 0.2 µM.
